Experiments:
Conditions in all cases: drug exposure time: 96 h
[1] = compound: Cc1cc2c(F)c(Oc3ncnn4cc(OC[C@@H](C)O)c(C)c34)ccc2[nH]1 [Brivanib]
Method: (§1)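 Breast cancer cell lines were grown in RPMI 1640 with 10% FBS on collagen I-coated 96-well plates and treated for 96 h (from 24 h after seeding) with 12 dilutions per drug, in triplicate. Growth was read by sulforhodamine B total-protein staining (absorbance 570 nm) relative to diluent control, and IC50 was calculated. The top dose was 1e-5 M for most drugs; Bortezomib went to 2e-5 M and Sirolimus and 17-AAG to 2e-6 M[…].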

[2] = compound: Cc1[nH]c2ccccc2c1CCNCc1ccc(/C=C/C(=O)NO)cc1 [Panobinostat]
Method: as §1

[3] = compound: O=C1c2c(O)ccc(O)c2C(=O)c2c(NCCNCCO)ccc(NCCNCCO)c21 [Mitoxantrone]
Method: as §1

[4] = compound: COc1cc2/c(=N/c3ccc(Br)cc3F)nc[nH]c2cc1OCC1CCN(C)CC1 [Vandetanib]
Method: as §1

[5] = compound: O=C1NC(=O)[C@@H](c2cn3c4c(cccc24)CCC3)[C@@H]1c1c[nH]c2ccccc12 [ARQ197]
Method: as §1

[6] = compound: C#Cc1cccc(Nc2ncnc3cc(OCCOC)c(OCCOC)cc23)c1 [Erlotinib]
Method: as §1

[7] = compound: CS(=O)(=O)CCNCc1ccc(-c2ccc3ncnc(Nc4ccc(OCc5cccc(F)c5)c(Cl)c4)c3c2)o1 [Lapatinib]
Method: as §1

[8] = compound: c1ccc2c(CCNc3ccc(Nc4ccncc4)cc3)c[nH]c2c1 [Serdemetan]
Method: as §1

[9] = compound: Cc1nc(Nc2ncc(C(=O)Nc3c(C)cccc3Cl)s2)cc(N2CCN(CCO)CC2)n1 [Dasatinib]
Method: as §1

[10] = compound: Nc1ncn([C@@H]2O[C@H](CO)[C@@H](O)[C@H]2O)c(=O)n1 [Azacitidine]
Method: as §1

[11] = compound: N.N.[Cl][Pt][Cl] [Cisplatin]
Method: as §1

[12] = compound: CC(C)(C)C[C@H]1N[C@@H](C(=O)NCC[C@H](O)CO)[C@H](c2cccc(Cl)c2)[C@@]12C(=O)Nc1cc(Cl)c(F)cc12 [MI-219]
Method: as §1

[13] = compound: CC(=O)O[C@H]1C(=O)[C@@]2(C)[C@H]([C@H](OC(=O)c3ccccc3)[C@]3(O)C[C@H](OC(=O)[C@H](O)[C@@H](NC(=O)c4ccccc4)c4ccccc4)C(C)=C1C3(C)C)[C@]1(OC(C)=O)CO[C@@H]1C[C@@H]2O [Paclitaxel]
Method: as §1

[14] = compound: CCN(CC)CCNC(=O)c1c(C)[nH]c(/C=C2\C(=O)Nc3ccc(F)cc32)c1C [Sunitinib]
Method: as §1

[15] = compound: O=C(/C=C/c1cccc(S(=O)(=O)Nc2ccccc2)c1)NO [Belinostat]
Method: as §1

[16] = compound: CN(Cc1cnc2nc(N)nc(N)c2n1)c1ccc(C(=O)N[C@@H](CCC(=O)O)C(=O)O)cc1 [Methotrexate]
Method: as §1

[17] = compound: Nc1ncn([C@H]2C[C@H](O)[C@@H](CO)O2)c(=O)n1 [Decitabine]
Method: as §1

[18] = compound: COc1cc2ncnc(Nc3ccc(F)c(Cl)c3)c2cc1OCCCN1CCOCC1 [Gefitinib]
Method: as §1

[19] = compound: O=c1[nH]cc(F)c(=O)[nH]1 [5-Fluorouracil]
Method: as §1

[20] = compound: Cn1cc(CNCC2CCN(c3ncc(C(=O)NO)cn3)CC2)c2ccccc21 [Quisinostat]
Method: as §1

[21] = compound: Cn1cncc1[C@@](N)(c1ccc(Cl)cc1)c1ccc2c(c1)c(-c1cccc(Cl)c1)cc(=O)n2C [Tipifarnib]
Method: as §1

[22] = compound: CNC(=O)c1cc(Oc2ccc(NC(=O)Nc3ccc(Cl)c(C(F)(F)F)c3)cc2)ccn1 [Sorafenib]
Method: as §1

[23] = compound: CC(=O)O[C@@]12CO[C@@H]1C[C@H](O)[C@@]1(C)C(=O)[C@H](O)C3=C(C)[C@@H](OC(=O)[C@H](O)[C@@H](NC(=O)OC(C)(C)C)c4ccccc4)C[C@@](O)([C@@H](OC(=O)c4ccccc4)[C@H]21)C3(C)C [Docetaxel]
Method: as §1

[24] = compound: CC/C(=C(\c1ccccc1)c1ccc(OCCN(C)C)cc1)c1ccccc1 [Tamoxifen]
Method: as §1

[25] = compound: COc1ccc(C2=N[C@@H](c3ccc(Cl)cc3)[C@@H](c3ccc(Cl)cc3)N2C(=O)N2CCNC(=O)C2)c(OC(C)C)c1 [Nutlin-3]
Method: as §1

[26] = compound: O=C(CCCCCCC(=O)Nc1ccccc1)NO [Vorinostat]
Method: as §1

[27] = compound: COc1cccc2c1C(=O)c1c(O)c3c(c(O)c1C2=O)C[C@@](O)(C(=O)CO)C[C@@H]3O[C@H]1C[C@H](N)[C@H](O)[C@H](C)O1 [Doxorubicin]
Method: as §1

[28] = compound: CO[C@H]1C[C@@H]2CC[C@@H](C)[C@@](O)(O2)C(=O)C(=O)N2CCCC[C@H]2C(=O)O[C@H]([C@H](C)C[C@@H]2CC[C@@H](O)[C@H](OC)C2)CC(=O)[C@H](C)/C=C(\C)[C@@H](O)[C@@H](OC)C(=O)[C@H](C)C[C@H](C)/C=C/C=C/C=C/1C [Sirolimus]
Method: (§2)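 Same SRB 96 h IC50 screen on breast cancer cell lines (RPMI 1640 + 10% FBS, collagen I-coated 96-well plates, triplicates, 12 dilutions), for drugs with a different dose range: Bortezomib up to 2e-5 M; Sirolimus and 17-AAG up to 2e-6 M. Sirolimus values at the 2e-6 M top dose are censored.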

[29] = compound: C=CCNC1=C2C[C@@H](C)C[C@H](OC)[C@H](O)[C@@H](C)/C=C(\C)[C@H](OC(N)=O)[C@@H](OC)/C=C\C=C(/C)C(=O)NC(=CC1=O)C2=O [17-AAG]
Method: as §2

[30] = compound: CC(C)C[C@H](NC(=O)[C@H](Cc1ccccc1)NC(=O)c1cnccn1)B(O)O [Bortezomib]
Method: as §2

Test System	IC50 (SRB growth assay) [1] [nM]	IC50 (SRB growth assay) [2] [nM]	IC50 (SRB growth assay) [3] [nM]	IC50 (SRB growth assay) [4] [nM]	IC50 (SRB growth assay) [5] [nM]	IC50 (SRB growth assay) [6] [nM]	IC50 (SRB growth assay) [7] [nM]	IC50 (SRB growth assay) [8] [nM]	IC50 (SRB growth assay) [9] [nM]	IC50 (SRB growth assay) [10] [nM]	IC50 (SRB growth assay) [11] [nM]	IC50 (SRB growth assay) [12] [nM]	IC50 (SRB growth assay) [13] [nM]	IC50 (SRB growth assay) [14] [nM]	IC50 (SRB growth assay) [15] [nM]	IC50 (SRB growth assay) [16] [nM]	IC50 (SRB growth assay) [17] [nM]	IC50 (SRB growth assay) [18] [nM]	IC50 (SRB growth assay) [19] [nM]	IC50 (SRB growth assay) [20] [nM]	IC50 (SRB growth assay) [21] [nM]	IC50 (SRB growth assay) [22] [nM]	IC50 (SRB growth assay) [23] [nM]	IC50 (SRB growth assay) [24] [nM]	IC50 (SRB growth assay) [25] [nM]	IC50 (SRB growth assay) [26] [nM]	IC50 (SRB growth assay) [27] [nM]	IC50 (SRB growth assay) [28] [nM]	IC50 (SRB growth assay) [29] [nM]	IC50 (SRB growth assay) [30] [nM]
HCC 38	> 10000	6.57	1.89	5540	131	> 10000	5520	443	115	746	> 10000	> 10000	1.39	9910	250	12.3	132	> 10000	2790	3.31	294	5260	0.51	> 10000	> 10000	610	5.51	0.166	72.2	5.22
HCC 70	> 10000	8.26	74.3	3960	324	> 10000	3750	1570	> 10000	2380	> 10000	> 10000	2.08	6810	356	30.1	2360	9360	5360	5.48	85.1	6250	0.539	> 10000	> 10000	781	40.6	0.222	37.3	2.84
MCF 7	> 10000	12	14.8	> 10000	260	> 10000	4000	1690	> 10000	3730	> 10000	815	1.79	4470	419	13.9	472	> 10000	2210	5.75	28.6	5100	1.12	5690	2010	783	8.94	58.2	93.4	8.35
HCC 1143	> 10000	11	3.93	1830	481	1080	2250	921	5110	2070	> 10000	> 10000	1.52	4730	350	24.7	148	1040	1980	4.84	749	6060	0.306	4990	> 10000	857	16.5	0.62	56.6	4.31
MDA-MB 435 S	> 10000	44.5	35.8	6950	705	> 10000	> 10000	2050	> 10000	3760	> 10000	> 10000	2.15	5440	2010	12.4	> 10000	> 10000	2860	25.2	> 10000	6530	1.32	> 10000	> 10000	2630	54.8	> 2000	164	12.3
SKBR 3	> 10000	5.39	4.74	3490	404	3740	43.7	1080	> 10000	2690	> 10000	> 10000	1.68	3410	190	9.97	2350	2630	4770	3.33	279	4790	0.589	6720	> 10000	499	20.4	0.587	18.9	5.5
EVSA-T	> 10000	3.19	2.68	2020	218	> 10000	2530	1130	> 10000	3840	> 10000	> 10000	1.09	2200	85.1	6030	2250	7520	1740	1.36	18.5	2240	0.4	4960	> 10000	380	8.01	0.0536	5.76	2.74
HCC 202	> 10000	16.7	213	3780	427	6060	199	5010	1200	4630	> 10000	> 10000	4.3	> 10000	487	47.6	> 10000	8050	7370	6.54	> 10000	5170	1.72	> 10000	> 10000	1130	76.5	5.17	49.5	1.51
MPE 600	> 10000	13.8	8.01	1990	859	8850	3080	2260	> 10000	548	> 10000	2050	2.51	6560	379	31	595	4260	1250	14.8	631	1900	1.15	> 10000	4450	1220	26.6	1.52	104	5.48
Hs 578T	> 10000	18.5	16.8	5710	696	> 10000	> 10000	2550	1360	5800	> 10000	> 10000	1.88	7020	543	26	> 10000	> 10000	> 10000	12.7	3930	6640	0.796	> 10000	> 10000	999	57.7	0.946	49.4	5.74
SUM 44 PE	> 10000	9.33	20.7	4200	539	> 10000	4760	2880	> 10000	3440	> 10000	> 10000	1.35	5020	139	> 10000	> 10000	> 10000	8640	2.21	3270	5050	0.414	5200	> 10000	564	30.8	0.222	15.8	9.46
T 47 D	> 10000	10.5	2.65	2520	1460	7140	2210	1100	> 10000	7300	> 10000	> 10000	1.72	4310	239	> 10000	> 10000	8770	2800	8.14	403	2730	0.62	3420	> 10000	828	10.4	0.143	913	1.7
SUM 52 PE	1270	7.17	7.57	711	427	8810	3210	570	2200	2000	6700	> 10000	1.42	1160	183	23.2	2210	7870	1240	1.47	185	655	0.489	6890	> 10000	366	17.7	0.165	35.4	5.23
HCC 1806	> 10000	15.8	20.1	580	501	327	589	826	178	> 10000	> 10000	> 10000	1.97	4990	216	2.99	1190	513	5080	8.95	263	5250	0.597	5990	> 10000	632	20.8	> 2000	53.6	5.96

From the supplement of paper PMC4628005
